From patent publication US9345723B2, “Rapid formation of chitosan sponges using guanosine 5′-diphosphate: injectable scaffolds for tissue regeneration and drug delivery” (THE ROYAL INSTITUTION FOR THE ADVANCEMENT OF …, priority 2012, dated 2016)

Key:
[1] = test system: 3T3 fibroblasts; assay: Cytotoxicity of GDP and TPP, MTT assay; type: cell-based; conditions: concentrations higher than 5 mM, 24 hours of culture
Procedure: FIG. 3 illustrates the comparison of the cytotoxicity of GDP and TPP at different concentrations; FIG. 3A: light microscopy images of 3T3 fibroblasts with different concentrations of GDP and TPP added to the culture media after 24 hours; FIG. 3B: Quantitative analysis, using MTT assay, of the cytotoxicity of TPP and GDP to 3T3 fibroblasts at different concentrations after 24 hours.
Crosslinking of chitosan using GDP occurs due to the electrostatic attractions between the anionic phosphate groups of GDP and the cationic amine groups of chitosan. Another anionic crosslinker used in the art is tripolyphosphate (TPP), which has been widely used to fabricate chitosan nanoparticles, microparticles and fibers (Pati et al., 2011, Carbohyd Res, 346: 2582). The cytotoxicity of GDP was compared to tripolyphosphate (TPP) at concentrations from 0.05 mM to 50 mM using 3T3 fibroblasts.

[2] = test system: 3T3 fibroblasts; conditions: concentrations higher than 5 mM; recent study (Pati et al., 2012); cited from earlier work

For `Nc1nc2c(ncn2[C@@H]2O[C@H](COP(=O)(O)OP(=O)(O)O)[C@@H](O)[C@H]2O)c(=O)[nH]1` [GDP, Guanosine 5′-Diphosphate], the “cytotoxicity compared to TPP” value [1] was “significantly less cytotoxic”.

For `O=P(O)(O)OP(=O)(O)OP(=O)(O)O` [TPP, tripolyphosphate], the cytotoxicity [2] is given as “cytotoxicity of TPP at concentrations higher than 5 mM”.
